From US20170349593A1, “BTK INHIBITORS” (MERCK SHARP & DOHME CORP., priority 2014, published 2017)

How the values were obtained:
[1] = test system: adenosine uptake into HeLa cells; assay: [3H]Adenosine uptake assay; type: cell-based; conditions: Homo sapiens; accumulation of [3H]adenosine into HeLa cells; concentration range 10 μM to 0.032 nM; read-out: ADU inhibition IC50
Procedure: Compounds are also screened in an adenosine uptake functional cellular assay using the protocol described below:
Adenosine uptake activity was determined by monitoring the accumulation of tritiated adenosine into HeLa cells (ATCC catalog #CCL-2) using a PMT-based radiometric detection instrument. In this assay, the potency (IC50) of each compound was determined from a ten point (1:3 serial dilution; final compound concentration range in assay from 10 μM to 0.032 nM) titration curve using the following outlined procedure. To each well of a 96-well CytoStar-T scintillating microplate (Perkin Elmer Catalog #RPNQ0163), 25 000 HeLa cells in 100 μL of growth medium comprising: Minimum Essential Media (Life Technologies Catalog #11095-080)+10% (v/v) foetal bovine serum (FBS; Sigma Aldrich Catalog #F2442) was added. These cells were incubated overnight at 37° C. in a humidified atmosphere with 5% (v/v) CO2. After this time the growth medium was removed and replaced with 40 μL assay medium comprising: Hanks balanced salts solution (HBSS; Thermo Fisher Catalog # SH30268.01)+5% (v/v) FBS. Compound stock solutions in DMSO were diluted in assay medium to 2.5× final compound concentration maintaining a constant DMSO concentration of 0.25% (v/v). 40 μL of compound in assay medium was dispensed into individual wells of the Cytostar-T plates and the plates were incubated for 30 minutes under ambient laboratory conditions. Following this incubation, 20 μL of 500 nM [^3H] adenosine (American Radiolabeled Chemicals Inc. Catalog #ART0287) in assay medium was added and incubated for a further 60 minutes under ambient laboratory conditions. The amount of radiolabel accumulation was then determined using a Perkin Elmer Topcount NXT microplate reader. In brief, HeLa cells adhere to the bottom of the Cytostar-T plate, uptake of [^3H]adenosine into these cells brings the radiolabel into sufficient proximity to excite the scintillant in the base of the plates. These events are captured by single PMT, time-resolved coincidence counting. IC50 values were determined by 4 parameter robust fit of counts per second values vs. (Log10)) compound concentrations.

[2] = biological target: T1, BTK enzyme (recombinant full-length BTK, hBTK) (Homo sapiens, UniProt Q06187); assay: Btk enzyme activity assay (LANCE TR-FRET); type: biochemical; conditions: 50 pM hBTK, 25 μM ATP, 60 minute compound and enzyme incubation, concentration range 1 μM to 0.017 nM, read-out: BTK binding IC50
T1 construct: recombinant protein from baculovirus-transfected S 19 cells: full-length BTK, 6 HIS-tag cleaved; 6 HIS-tag (cleaved yes); made in house
T1 sequence (Q06187 whole entry): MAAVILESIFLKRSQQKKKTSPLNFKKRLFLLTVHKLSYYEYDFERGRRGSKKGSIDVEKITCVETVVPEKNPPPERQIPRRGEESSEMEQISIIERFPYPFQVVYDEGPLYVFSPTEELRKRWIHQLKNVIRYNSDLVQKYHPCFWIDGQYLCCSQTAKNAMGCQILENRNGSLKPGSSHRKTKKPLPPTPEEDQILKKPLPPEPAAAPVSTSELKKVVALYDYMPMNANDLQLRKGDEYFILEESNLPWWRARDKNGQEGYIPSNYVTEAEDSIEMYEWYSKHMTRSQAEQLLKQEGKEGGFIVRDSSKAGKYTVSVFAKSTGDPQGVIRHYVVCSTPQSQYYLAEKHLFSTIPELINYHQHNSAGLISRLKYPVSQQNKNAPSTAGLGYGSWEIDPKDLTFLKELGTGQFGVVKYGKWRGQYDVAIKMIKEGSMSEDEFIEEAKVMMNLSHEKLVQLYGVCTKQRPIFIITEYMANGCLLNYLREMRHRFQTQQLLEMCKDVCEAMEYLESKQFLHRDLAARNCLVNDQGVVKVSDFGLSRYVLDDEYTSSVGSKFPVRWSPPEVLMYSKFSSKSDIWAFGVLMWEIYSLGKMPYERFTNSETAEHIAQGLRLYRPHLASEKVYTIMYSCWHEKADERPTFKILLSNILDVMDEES

Row | SMILES | IC50 [1] [nM] | IC50 [2] [nM]
1 | Nc1nccn2c([C@H]3CN(C4CCOCC4)[C@H](CO)CO3)nc(-c3ccc(C(=O)Nc4cc(C(F)(F)F)ccn4)cc3F)c12 [Example 65, 4-{8-amino-3-[(2R,5R)-5-(hydroxymethyl)-4-(tetrahydro-2H-pyran-4-yl)morpholin-2-yl]imidazo[1,5-a]pyrazin-1-yl}-3-fluoro-N-[4-(trifluoromethyl)pyridin-2-yl]benzamide] | 136 | 6.78
2 | CCOc1cc(C(=O)Nc2cc(C(F)(F)F)ccn2)ccc1-c1nc([C@H]2CN(C(=O)CCOC)[C@@H](C)CO2)n2c(Cl)cnc(N)c12 [Example 104, 4-{8-amino-5-chloro-3-[(2R,5S)-4-(3-methoxypropanoyl)-5-methylmorpholin-2-yl]imidazo[1,5-a]pyrazin-1-yl}-3-ethoxy-N-[4-(trifluoromethyl)pyridin-2-yl]benzamide] | 6150 | 1.33
3 | COCCC(=O)N1CC(C(=O)N2C[C@H](c3nc(-c4ccc(C(=O)Nc5cc(C(F)(F)F)ccn5)cc4OC)c4c(N)nccn34)OC[C@@H]2C)C1 [Example 33, 4-{8-amino-3-[(2R,5S)-4-{[1-(3-methoxypropanoyl)azetidin-3-yl]carbonyl}-5-methylmorpholin-2-yl]imidazo[1,5-a]pyrazin-1-yl}-3-methoxy-N-[4-(trifluoromethyl)pyridin-2-yl]benzamide] | ≥ 10000 | 2.05
4 | C[C@H]1CC[C@@H](c2nc(-c3ccc(C(=O)Nc4cc(C#N)ccn4)cc3)c3c(N)nccn23)CN1C(=O)C1CC1 [Example 89, 4-{8-amino-3-[(3R,6S)-1-(cyclopropylcarbonyl)-6-methylpiperidin-3-yl]imidazo[1,5-a]pyrazin-1-yl}-N-(4-cyanopyridin-2-yl)benzamide] | 47.5 | 0.297
5 | Nc1c(N[C@H]2C[C@H](c3nc(-c4ccc(C(=O)Nc5cc(C(F)(F)F)ccn5)cc4)c4c(N)nccn43)C2)c(=O)c1=O [Example 112, 4-(8-amino-3-{trans-3-[(2-amino-3,4-dioxocyclobut-1-en-1-yl)amino]cyclobutyl}imidazo[1,5-a]pyrazin-1-yl)-N-[4-(trifluoromethyl)pyridin-2-yl]benzamide] | 2270 | 0.254
6 | COc1cc(C(=O)Nc2cc(C(F)(F)F)ccn2)ccc1-c1nc([C@H]2CN(C(=O)C3CCOCC3)[C@@H](C)CO2)n2ccnc(N)c12 [Example 49, 4-{8-amino-3-[(2R,5S)-5-methyl-4-(tetrahydro-2H-pyran-4-ylcarbonyl)morpholin-2-yl]imidazo[1,5-a]pyrazin-1-yl}-3-methoxy-N-[4-(trifluoromethyl)pyridin-2-yl]benzamide] | 1780 | 1.74
7 | Cn1cc(CN2C[C@H](c3nc(-c4ccc(C(=O)Nc5cc(C(F)(F)F)ccn5)cc4F)c4c(N)nccn34)OC[C@H]2CO)cn1 [Example 64, 4-(8-amino-3-{(2R,5R)-5-(hydroxymethyl)-4-[(1-methyl-1H-pyrazol-4-yl)methyl]morpholin-2-yl}imidazo[1,5-a]pyrazin-1-yl)-3-fluoro-N-[4-(trifluoromethyl)pyridin-2-yl]benzamide] | 260 | 4.33
8 | C[C@H](O)C(=O)N1C[C@H](c2nc(-c3ccc(C(=O)Nc4cc(C(F)(F)F)ccn4)cc3)c3c(N)ncc(Cl)n23)OC[C@@H]1C [Example 45, 4-(8-amino-5-chloro-3-{(2R,5S)-4-[(2S)-2-hydroxypropanoyl]-5-methylmorpholin-2-yl}imidazo[1,5-a]pyrazin-1-yl)-N-[4-(trifluoromethyl)pyridin-2-yl]benzamide] | 512 | 0.68
9 | CCc1cnc(N)c2c(-c3ccc(C(=O)Nc4cc(C(F)(F)F)ccn4)cc3F)nc([C@H]3CN(C(=O)C4CC4)[C@@H](C)CO3)n12 [Example 110, 4-{8-amino-3-[(2R,5S)-4-(cyclopropylcarbonyl)-5-methylmorpholin-2-yl]-5-ethylimidazo[1,5-a]pyrazin-1-yl}-3-fluoro-N-[4-(trifluoromethyl)pyridin-2-yl]benzamide] | 533 | 0.674
10 | C[C@H]1CC[C@@H](c2nc(-c3ccc(C(=O)Nc4cc(OC5CC5)ccn4)cc3)c3c(N)nccn23)CN1C(=O)N(C)C [Example 90, (2S,5R)-5-[8-amino-1-(4-{[4-(cyclopropyloxy)pyridin-2-yl]carbamoyl}phenyl)imidazo[1,5-a]pyrazin-3-yl]-N,N,2-trimethylpiperidine-1-carboxamide] | 14 | 0.448
11 | C[C@@H]1CO[C@@H](c2nc(-c3ccc(C(=O)Nc4cc(C(F)(F)F)ccn4)cc3F)c3c(N)nccn23)CN1C1CCOCC1 [Example 73, 4-{8-amino-3-[(2R,5R)-5-methyl-4-(tetrahydro-2H-pyran-4-yl)morpholin-2-yl]imidazo[1,5-a]pyrazin-1-yl}-3-fluoro-N-[4-(trifluoromethyl)pyridin-2-yl]benzamide] | 122 | 2.67
12 | CCOc1cc(C(=O)Nc2cc(C(F)(F)F)n(C)n2)ccc1-c1nc([C@H]2CN(C(=O)C3CC3)[C@@H](C)CO2)n2c(Cl)cnc(N)c12 [Example 5, 4-{8-amino-5-chloro-3-[(2R,5S)-4-(cyclopropylcarbonyl)-5-methylmorpholin-2-yl]imidazo[1,5-a]pyrazin-1-yl}-3-ethoxy-N-[1-methyl-5-(trifluoromethyl)-1H-pyrazol-3-yl]benzamide] | ≥ 10000 | 7.14
13 | C[C@H](O)C(=O)N1C[C@H](c2nc(-c3ccc(C(=O)Nc4cc(C(F)(F)F)ccn4)cc3Cl)c3c(N)ncc(Cl)n23)OC[C@@H]1C [Example 100, 4-(8-amino-5-chloro-3-{(2R,5S)-4-[(2S)-2-hydroxypropanoyl]-5-methylmorpholin-2-yl}imidazo[1,5-a]pyrazin-1-yl)-3-chloro-N-[4-(trifluoromethyl)pyridin-2-yl]benzamide] | 663 | 0.65
14 | CCOc1cc(C(=O)Nc2cc(C(F)(F)F)ccn2)ccc1-c1nc([C@H]2CN(C(=O)[C@@H](C)O)[C@@H](C)CO2)n2c(Cl)cnc(N)c12 [Example 11, 4-(8-amino-5-chloro-3-{(2R,5S)-4-[(2R)-2-hydroxypropanoyl]-5-methylmorpholin-2-yl}imidazo[1,5-a]pyrazin-1-yl)-3-ethoxy-N-[4-(trifluoromethyl)pyridin-2-yl]benzamide] | 3120 | 1.42
15 | C[C@H]1CO[C@@H](c2nc(-c3ccc(C(=O)Nc4cc(C(F)(F)F)ccn4)cc3F)c3c(N)nccn23)CN1C1COC1 [Example 76, 4-{8-amino-3-[(2R,5S)-5-methyl-4-oxetan-3-ylmorpholin-2-yl]imidazo[1,5-a]pyrazin-1-yl}-3-fluoro-N-[4-(trifluoromethyl)pyridin-2-yl]benzamide] | 237 | 0.531
16 | CCOc1cc(C(=O)Nc2cc(C(F)(F)F)n(C)n2)ccc1-c1nc([C@H]2CN(C(=O)[C@H](C)O)[C@@H](C)CO2)n2c(Cl)cnc(N)c12 [Example 6, 4-(8-amino-5-chloro-3-{(2R,5S)-4-[(2S)-2-hydroxypropanoyl]-5-methylmorpholin-2-yl}imidazo[1,5-a]pyrazin-1-yl)-3-ethoxy-N-[1-methyl-5-(trifluoromethyl)-1H-pyrazol-3-yl]benzamide] | ≥ 10000 | 5.73
17 | CC(=O)N1C[C@H](c2nc(-c3ccc(C(=O)Nc4cc(C(F)(F)F)ccn4)cc3F)c3c(N)nccn23)OC[C@@H]1C [Example 88, 4-{3-[(2R,5S)-4-acetyl-5-methylmorpholin-2-yl]-8-aminoimidazo[1,5-a]pyrazin-1-yl}-3-fluoro-N-[4-(trifluoromethyl)pyridin-2-yl]benzamide] | 215 | 0.343
18 | CC(C)C(=O)N1C[C@H](c2nc(-c3ccc(C(=O)Nc4cc(C(F)(F)F)ccn4)cc3)c3c(N)nccn23)OC[C@@H]1C [Example 82, 4-{8-amino-3-[(2R,5S)-5-methyl-4-(2-methylpropanoyl)morpholin-2-yl]imidazo[1,5-a]pyrazin-1-yl}-N-[4-(trifluoromethyl)pyridin-2-yl]benzamide] | 262 | 0.546
19 | CCOc1cc(C(=O)Nc2cc(C(F)(F)F)ccn2)ccc1-c1nc([C@H]2CN(C(=O)CC)[C@@H](C)CO2)n2c(Cl)cnc(N)c12 [Example 19, 4-{8-amino-5-chloro-3-[(2R,5S)-5-methyl-4-propanoylmorpholin-2-yl]imidazo[1,5-a]pyrazin-1-yl}-3-ethoxy-N-[4-(trifluoromethyl)pyridin-2-yl]benzamide] | ≥ 10000 | 1.23
